Reference: patent US9487553B2, “Boranophosphate analogues of cyclic nucleotides” (BIOLOG LIFE SCIENCE INSTITUTE FORSCHUNGSLABOR UND …, priority 2011, dated 2016)
Where “and” joins values, the source holds several entries; their conditions need not be identical. Equal values may be shown once. Each block holds one molecule with its values, some of them ahead of it.

What was measured:
[1] = biological target: protein kinase A type I alpha holoenzyme (Homo sapiens, UniProt P10644); test: Standard photometric (Cook) assay with protein kinase A type I alpha holoenzyme; assay type: biochemical; conditions: holoenzyme RIα
protein kinase A type I alpha holoenzyme, sequence (P10644 whole entry): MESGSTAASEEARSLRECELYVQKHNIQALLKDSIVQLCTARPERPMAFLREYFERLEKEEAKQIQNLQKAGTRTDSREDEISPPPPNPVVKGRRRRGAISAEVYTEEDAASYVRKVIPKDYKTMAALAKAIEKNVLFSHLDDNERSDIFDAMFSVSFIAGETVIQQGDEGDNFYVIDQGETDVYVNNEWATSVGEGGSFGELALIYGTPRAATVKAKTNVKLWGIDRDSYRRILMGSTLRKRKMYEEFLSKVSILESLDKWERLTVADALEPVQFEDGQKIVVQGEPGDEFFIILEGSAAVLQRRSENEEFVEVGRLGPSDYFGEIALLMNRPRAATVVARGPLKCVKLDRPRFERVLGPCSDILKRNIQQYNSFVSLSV
Source text: In a first experiment, the biological activity of the Rp- and Sp-isomer of 8-bromoadenosine-3′,5′-cyclic boranophosphate (examples 1 and 2) has been tested with the holoenzyme of protein kinase A type I alpha (FIGS. 3 and 4) using a standard photometric assay (Cook, P. F.; Neville, M. E., Jr.; Vrana, K. E.; Hartl, F. T. and Roskoski, R., Jr., Biochemistry 21, 5794-5799 (1982)).
As a control, two boranophosphate analogues with a 2′-O-methyl modification (Rp-2′-O-Me-cAMPB and Sp-2′-O-Me-cAMPB, examples 7 & 8) have been tested by the same type of assay with protein kinase A type I alpha as well.
FIG. 5 depicts the activity overview of four different cyclic boranophosphate analogues with protein kinase A type I alpha holoenzyme. 9108: Sp-2′-O-Me-cAMPB; 9109: Rp-2′-O-Me-cAMPB; 9110: Sp-8-Br-cAMPB; 9111: Rp-8-Br-cAMPB; controls: B 001: Rp-8-Br-cAMPS. Control: cAMP. “Cook Assay” with Holoenzyme RIα.

[2] = Degradation Example 5: oxidation with hydrogen peroxide, monitored by HPLC; assay type: physicochemical; conditions: after 1 hour at RT
Procedure: Thus, the cyclic boranophosphate 6-chloropurine-1-β-D-ribofuranoside-3′,5′-cyclic boranophosphate, Rp-isomer (Rp-6-Cl-cPuMPB, example 42) together with the corresponding phosphorothioate 6-chloropurine-1-β-D-ribofuranoside-3′,5′-cyclic phosphorothioate, Sp-isomer (Sp-6-Cl-cPuMPS, Biolog) as a control were treated repeatedly with μl doses of 30% aqueous hydrogen peroxide (Merck). During one hour, oxidative degradation was monitored by HPLC (RP-18, 15 Vol.-% acetonitrile, 20 mM triethylammonium formate buffer, pH 6.5, 2 ml/min., UV 263 nm) and corresponding peak areas were recorded, integrated and compared (Tab. 3).

protein kinase G I α = biological target: T1, protein kinase G I α (Homo sapiens, UniProt Q13976); test: Protein kinase G I alpha activation, phosphotransferyl assay; assay type: biochemical; conditions: 10 nM, 100 nM and 1 μM
T1 sequence (Q13976 1-671): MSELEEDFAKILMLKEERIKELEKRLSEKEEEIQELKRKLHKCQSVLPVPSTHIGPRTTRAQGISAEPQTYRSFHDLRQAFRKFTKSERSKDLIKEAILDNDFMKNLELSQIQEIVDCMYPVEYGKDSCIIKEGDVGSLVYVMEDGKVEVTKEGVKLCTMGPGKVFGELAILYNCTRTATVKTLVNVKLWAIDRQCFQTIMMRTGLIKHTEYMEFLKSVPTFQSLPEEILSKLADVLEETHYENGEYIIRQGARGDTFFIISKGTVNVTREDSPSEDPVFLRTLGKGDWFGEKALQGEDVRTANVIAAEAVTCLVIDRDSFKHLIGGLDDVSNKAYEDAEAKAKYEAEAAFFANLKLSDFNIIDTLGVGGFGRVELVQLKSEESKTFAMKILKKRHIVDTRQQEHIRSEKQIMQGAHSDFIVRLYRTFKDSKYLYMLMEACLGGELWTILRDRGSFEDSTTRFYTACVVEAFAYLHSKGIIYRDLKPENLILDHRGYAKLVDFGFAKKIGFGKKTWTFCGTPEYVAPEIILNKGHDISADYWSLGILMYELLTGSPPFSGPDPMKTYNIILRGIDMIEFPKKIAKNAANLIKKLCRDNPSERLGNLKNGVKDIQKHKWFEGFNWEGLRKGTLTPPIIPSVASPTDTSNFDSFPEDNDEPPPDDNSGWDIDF
Source text: Next, the activity profile of some cyclic boranophosphates disclosed in this invention has also been investigated on protein kinase G I α (FIGS. 8 and 9). Potential activatory potential towards the enzyme has been determined by a standard phosphotransferyl assay protocol according to Dostmann et al. (Dostmann, W. R.; Nickl, C.; Thiel, S.; Tsigelny, I.; Frank, R.; and Tegge, W. J., Pharmacol. Ther., 82, 373-387 (1999). FIG. 8 depicts the activity (μmol×min^−1×mg^−1) overview of six different cyclic boranophosphate analogues with protein kinase G type I at 10 nM, 100 nM and 1 μM. BLG-9108: […]; BLG-9110: Sp-8-Br-cAMPB; BLG-9111: Rp-8-Br-cAMPB; BLG-9112: Sp-8-Br-cGMPB; BLG-9113: Rp-8-Br-cGMPB; control: cyclic GMP.

[3] = Degradation Example 7: oxidation with hydrogen peroxide, monitored by HPLC; assay type: physicochemical; conditions: for oxidation by peroxide: 5 portions of 30% H2O2; for HPLC Area %: hydrogen peroxide
Procedure: The degradation experiment was monitored by HPLC (RP-18, 15 Vol.-% acetonitrile, 20 mM triethylammonium formate buffer, pH 6.5, 1 ml/min., UV 270 nm) and peak areas were recorded.

[4] = Degradation Example 1: oxidation with hydrogen peroxide, monitored by HPLC; assay type: physicochemical; conditions: after further addition of 10 μl of 30% H2O2, two hours at RT
Source text: In order to check out the stability of the boranophosphates described in this invention towards oxidising conditions in comparison to the corresponding phosphorothioates, 0.1 μmol of the sodium salts of each, Rp-8-bromoadenosine-3′,5′-cyclic boranophosphate (Rp-8-Br-cAMPB, example 1), Sp-8-bromoadenosine-3′,5′-cyclic boranophosphate (Sp-8-Br-cAMPB, example 2), Rp-8-bromoadenosine-3′,5′-cyclic phosphorothioate (Rp-8-Br-cAMPS, Biolog) and Sp-8-bromoadenosine-3′,5′-cyclic phosphorothioate (Sp-8-Br-cAMPS, Biolog) were dissolved in 100 μl of eluent and the mixture was analyzed by HPLC (RP-18, 11% acetonitrile, 20 mM triethylammonium formate buffer, pH 6.1, 1.5 ml/min, UV 258 nm). The following elution profile was recorded: Rp-8-Br-cAMPS (5:13 min.)<Sp-8-Br-cAMPS (7:23 min.)<Sp-8-Br-cAMPB (9:13 min.)<Rp-8-Br-cAMPB ([…].).
Subsequently, aqueous hydrogen peroxide (Merck) was added in small portions while the stability of the four compounds was permanently monitored over time.
10 μl of H2O2 (0.3%) as well as 10 μl of 3% H2O2 were added to no effect.

[5] = Degradation Example 3: oxidation with hydrogen peroxide, monitored by HPLC; assay type: physicochemical; conditions: after 90 min. at RT
Procedure: Thus, 0.1 μmol of the Rp-isomer of 8-(4-chlorophenylthio)-2′-O-methyladenosine-3′,5′-cyclic boranophosphate (Rp-8-pCPT-2′-O-Me-cAMPB, example 44), dissolved in 300 μl of water, was treated stepwise with 2 μl portions of 30% aqueous hydrogen peroxide solution (Merck). The oxidation process was monitored again by reversed phase HPLC (RP-18, 30 Vol.-% acetonitrile, 20 mM triethylammonium formate buffer, pH 8.3, 2 ml/min, UV 282 nm). As a control, the corresponding cyclic nucleotide with phosphorothioate modification (Sp-8-pCPT-2′-O-Me-cAMPS, Biolog) was added. In summary, 20 μl peroxide, were applied.

[6] = Degradation Example 2: oxidation with hydrogen peroxide, monitored by HPLC; assay type: physicochemical
Procedure: Thus, 0.05 μmol of the Rp-isomer of 8-(4-chlorophenylthio)adenosine-3′,5′-cyclic boranophosphate (Rp-8-pCPT-cAMPB, example 9), was treated stepwise with 5 μl portions of 30% aqueous hydrogen peroxide solution (Merck) every 30 min. The oxidation process was monitored by reversed phase HPLC (RP-18, 25 Vol.-% acetonitrile, 20 mM triethylammonium formate buffer, pH 6.1, 2 ml/min, UV 280 nm). As a control the corresponding cyclic nucleotide with phosphorothioate modification (Sp-8-pCPT-cAMPS, Biolog) was added. In summary, 15 μl peroxide, were applied.

PDE 1 from bovine heart = test: Resistance towards phosphodiesterase: incubation with PDE 1 from bovine heart, HPLC; conditions: PDE 1, bovine heart
Procedure: For this purpose 0.1 μmol of Rp-8-bromoadenosine-3′,5′-cyclic boranophosphate (example 1) and Sp-8-bromoadenosine-3′,5′-cyclic boranophosphate […] dissolved in TRIS buffer pH 7.2 containing calcium chloride and calmodulin and incubated with PDE type I from bovine brain (Sigma-Aldrich) at 37° C. Activity of the enzyme was checked by hydrolysis of cyclic AMP. Stability was monitored by HPLC (RP-18, 11 Vol.-% propanol-2, 20 mM TEAF buffer, pH 6.8, 1 ml/min., UV 264 nm). […] This strategy of testing PDE performance was applied accordingly in degradation examples 10 and 11.
Thus, Rp-8-Br-cAMPB (example 1) and Sp-8-Br-cAMPS (Biolog, Bremen/Germany) were incubated with PDE 1 from bovine heart (Sigma-Aldrich) and monitored by HPLC as described above.
Rp-2′-O-Me-cAMPB (example 7) and Sp-2′-O-Me-cAMPS (Biolog, Bremen/Germany).

PDE IV (A4B) = biological target: T2, PDE IV (A4B) (Homo sapiens, UniProt P27815); test: Stability against PDE IV, HPLC; assay type: in vitro ADME; conditions: human, Houslay lab), pH 7.2, read-out: half life of hydrolysis
T2 construct: Houslay lab, Glasgow/Scotland (obtained from another laboratory)
T2 sequence (P27815 whole entry): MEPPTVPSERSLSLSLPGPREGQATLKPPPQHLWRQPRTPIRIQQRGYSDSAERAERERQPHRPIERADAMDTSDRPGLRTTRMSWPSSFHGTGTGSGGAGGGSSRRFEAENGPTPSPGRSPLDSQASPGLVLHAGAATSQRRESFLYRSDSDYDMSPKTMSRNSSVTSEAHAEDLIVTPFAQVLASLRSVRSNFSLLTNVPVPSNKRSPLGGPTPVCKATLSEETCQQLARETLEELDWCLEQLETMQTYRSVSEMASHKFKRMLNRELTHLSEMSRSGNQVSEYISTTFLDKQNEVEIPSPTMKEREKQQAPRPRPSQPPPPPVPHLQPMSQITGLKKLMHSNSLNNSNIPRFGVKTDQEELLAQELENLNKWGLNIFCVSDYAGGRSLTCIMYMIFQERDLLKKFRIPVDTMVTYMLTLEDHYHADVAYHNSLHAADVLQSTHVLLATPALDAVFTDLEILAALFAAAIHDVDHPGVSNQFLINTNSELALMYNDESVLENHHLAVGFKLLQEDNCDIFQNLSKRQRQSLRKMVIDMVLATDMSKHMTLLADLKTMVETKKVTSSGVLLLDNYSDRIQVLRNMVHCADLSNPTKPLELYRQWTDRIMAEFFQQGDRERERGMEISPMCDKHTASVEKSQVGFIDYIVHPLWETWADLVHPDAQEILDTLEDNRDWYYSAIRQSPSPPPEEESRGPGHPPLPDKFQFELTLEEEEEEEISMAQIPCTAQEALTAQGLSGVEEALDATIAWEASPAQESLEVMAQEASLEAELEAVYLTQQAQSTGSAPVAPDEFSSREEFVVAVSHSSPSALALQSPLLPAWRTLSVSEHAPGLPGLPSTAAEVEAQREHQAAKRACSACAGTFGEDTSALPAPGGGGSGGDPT
Procedure: Next, stability of the disclosed boranophosphates against PDE IV (A4B, Houslay lab, Glasgow/Scotland) was tested in similar experiments as described above.

Molecule: 2′-O-Methyladenosine-3′,5′-cyclic boranophosphate, Sp-isomer [Sp-2′-O-Me-cAMPB]
- effect on protein kinase A type I alpha holoenzyme [1]: neither Rp- nor Sp-2′-O-Me-cAMPB did modulate the kinase in any way

Molecule: 6-Chloropurine-1-β-D-ribofuranoside-3′,5′-cyclic boranophosphate, Rp-isomer [Rp-6-Cl-cPuMPB]
- peak area, % of the original area [2]: 93%

- activation of protein kinase G (protein kinase G I α): activated the kinase
Molecule: 8-Bromoguanosine-3′,5′-cyclic boranophosphate, Rp-isomer [Rp-8-Br-cGMPB]

Molecule: O[C@@H]1[C@@H]2OP(O)(=S)OC[C@H]2O[C@H]1n1cnc2c(Cl)ncnc21 (single isomer, unassigned) [Sp-6-Cl-cPuMPS, 6-chloropurine-1-β-D-ribofuranoside-3′,5′-cyclic phosphorothioate, Sp-isomer, reference compound]
- degraded [2]: 37%

Molecule: Nc1ccn([C@@H]2O[C@@H]3COP(O)(=S)O[C@H]3[C@H]2O)c(=O)n1 (single isomer, unassigned) [Sp-cCMPS, cytidine-3′,5′-cyclic phosphorothioate, Sp-isomer, reference compound]
- oxidation by peroxide [3]: rapidly oxidized
- HPLC Area % ([3]; Time 0 min): 100%
- HPLC Area % ([3]; Time 10 min): 94%
- HPLC Area % ([3]; Time 20 min): 85%
- HPLC Area % ([3]; Time 34 min): 69%
- HPLC Area % ([3]; Time 65 min): 46%
- HPLC Area % ([3]; Time 81 min): 23%
- HPLC Area % ([3]; Time 92 min): 14%
- HPLC Area % ([3]; Time 98 min): 13%

Molecule: Nc1ncnc2c1nc(Br)n2C1OC2COP(O)(=S)OC2C1O (stereo not drawn) [Rp-8-Br-cAMPS, Rp-8-bromoadenosine-3′,5′-cyclic phosphorothioate, reference compound]
- HPLC signal after oxidation [4]: completely vanished

- peak area, % of the original area [5]: 50%
Molecule: B[PH]1(O)OC[C@H]2O[C@@H](n3c(Sc4ccc(Cl)cc4)nc4c(N)ncnc43)C(OC)[C@@H]2O1 (stereo partly drawn) [Rp-8-pCPT-2′-O-Me-cAMPB, 8-(4-Chlorophenylthio)-2′-O-methyladenosine-3′,5′-cyclic boranophosphate, Rp-isomer]

- HPLC Area % ([6]; Time 0.00 h): 100%
- HPLC Area % ([6]; Time 0.50 h): 87.51%
- HPLC Area % ([6]; Time 1.00 h): 82.89%
- HPLC Area % ([6]; Time 1.50 h, RT): 79% and 79.25%
- HPLC Area % ([6]; Time 18.00 h): 30% and 29.56%
Molecule: B[PH]1(O)OC[C@H]2O[C@@H](n3c(Sc4ccc(Cl)cc4)nc4c(N)ncnc43)C(O)[C@@H]2O1 (stereo partly drawn) [Rp-8-pCPT-cAMPB, 8-(4-Chlorophenylthio)adenosine-3′,5′-cyclic boranophosphate, Rp-isomer]

- oxidation by peroxide [3]: considerably higher resistance
- HPLC Area % ([3]; Time 0 min): 100%
- HPLC Area % ([3]; Time 10 min): 99%
- HPLC Area % ([3]; Time 20 min): 98%
- HPLC Area % ([3]; Time 34 min): 96%
- HPLC Area % ([3]; Time 65 min): 91%
- HPLC Area % ([3]; Time 81 min): 84%
- HPLC Area % ([3]; Time 92 min): 78%
- HPLC Area % ([3]; Time 98 min): 79%
Molecule: B[PH]1(O)OC[C@H]2O[C@@H](n3ccc(N)nc3=O)C(O)[C@@H]2O1 (stereo partly drawn) [Rp-cCMPB, Cytidine-3′,5′-cyclic boranophosphate, Rp-isomer]

Molecule: COC1C2OP(O)(=S)OCC2OC1n1cnc2c(N)ncnc21 (stereo not drawn) [Sp-2′-O-Me-cAMPS, reference compound]
- half life of degradation (PDE 1 from bovine heart): 1800 min

Molecule: CO[C@H]1C2OP(O)(=S)OC[C@H]2O[C@H]1n1c(Sc2ccc(Cl)cc2)nc2c(N)ncnc21 (stereo partly drawn) [Sp-8-pCPT-2′-O-Me-cAMPS, reference compound]
- peak area, % of the original area [5]: completely degraded

Molecule: Nc1ncnc2c1nc(Sc1ccc(Cl)cc1)n2[C@@H]1O[C@@H]2COP([O-])(=S)O[C@H]2[C@H]1O.[Na+] (stereo partly drawn) [Sp-8-pCPT-cAMPS, reference compound]
- HPLC Area % ([6]; Time 0.00 h): 100%
- HPLC Area % ([6]; Time 0.50 h): 81.7%
- HPLC Area % ([6]; Time 1.00 h): 57.47%
- HPLC Area % ([6]; Time 1.50 h, RT): 45.71%
- HPLC Area % ([6]; Time 18.00 h): completely vanished
- HPLC Area % ([6]; Time 18.00 h, listed as Sp-8-pCPT-CAMPS): 0%
- degraded ([6]; after 1.5 hours at RT): more than 50%

Molecule: Nc1ncnc2c1ncn2[C@@H]1O[C@@H]2COP(=O)(O)O[C@H]2[C@H]1O [cAMP, cyclic adenosine-3′,5′-monophosphate, reference compound]
- half-life (PDE IV (A4B)): 5 min
